This is an account of results in patent publication US20050256064A1, “9-Desoxoerythromycin compounds as prokinetic agents” (priority 2003, published 2005).

The target in one data set is hERG potassium channel (Homo sapiens, UniProt Q12809). Put plainly: in vitro. The conditions noted are these: human. From the text:
(§1) Stanat et al., Mol. Cellular Biochem., 254, 1-7 (2003), “Characterization of the Inhibitory Effects of Erythromycin and Clarithromycin on the HERG Potassium Channel”.

The target of a further data set is cytochrome P450 3A4 (Homo sapiens, UniProt P08684). Put plainly: Cytochrome P450 inhibition. It is filed as in vitro ADME. The procedure:
The inhibitory effect of compound I-b on cytochrome P450 3A4, the most abundant of the cytrochrome P450 enzymes responsible for the metabolism of many drugs, was determined, using a method based on Stresser et al., Drug Metabolism Disposition, 30 (7), 845-52. A strong inhibitory effect is undesirable, as indicative of a high probability of interference with other drugs.

Data set [1] addresses T1, human motilin receptor (Homo sapiens, UniProt O43193).
T1 construct: expressed in transfected cells; host or cells: HEK293
Put plainly: Motilin agonist potency (cell based assay). The conditions noted are these: HEK293 cells expressing human motilin receptor. On the procedure: The motilin agonist potency of compound I-b was evaluated in a cell based assay, according to the procedure disclosed in Carreras et al., Anal. Biochemistry, 300, 146-151 (2002), the disclosure of which is incorporated herein by reference. Briefly, in this method HEK293 cells are transformed with a synthetic gene for the human motilin receptor. Expression of the synthetic gene produces the human motilin receptor; then the activation of the receptor by the binding of a test compound thereto is measured.

The next data set concerns rabbit duodenum tissue. Put plainly: Motilin agonist potency (tissue based assay), rabbit duodenum contractility. The following applies: Oryctolagus cuniculus, rabbit duodenum contraction. On the procedure: The motilin agonist potency of compound I-b also was evaluated using a tissue based assay, using rabbit duodenum tissue-based contractility assay, generally following the procedure of Depoortere et al., J. Gastrointestinal Motility, 1, 150-159 (1989), the disclosure of which is incorporated herein by reference. Briefly, this method measures the ability of a compound to induce contractions in rabbit duodenal tissue, a tissue that responds to motilin.
Strips of rabbit duodenum were tested and qualified for use in the assay by as follows. Segments of rabbit duodenum, 20-30 cm distal to the pylorus were split longitudinally. The mucosa was removed and 2×2×15 mm strips of longitudinal smooth muscle were sliced from the segments. The strips were bathed in oxygenated Krebs solution at 37° C., with 1.5 g of tension, and contractions measured auxotonically. […] Qualified strips were mounted on the test apparatus.
Compound I-b was dissolved in dimethylsulfoxide (DMSO) to a final concentration of 10 mM. […]
The EC50 (concentration producing a half-maximal effect) was calculated as follows. The basal tension was subtracted from the compound-induced tension for each reading. […] Both R and Rmax are expressed as a fraction of the 1 μM carbachol contraction and range from 0 to 1. […]

A further data set has as its system S. pneumoniae. Put plainly: Antibacterial activity, MIC by serial dilutions on 96-well microtiter plates. The class given is cell-based. The conditions noted are these: for MIC: Streptococcus pneumoniae.
For another data set, the system named is rabbit duodenum strips. Put plainly: Chronic dosing tachyphylaxis model. The conditions noted are these: for % of the initial contraction after the fourth dose: dosed at EC90 at 0, 30, 60 and 90 min, response at 0 min set as 100%. On the procedure: Rabbit duodenum strips were qualified as described above and dosed with test compound at its EC90 concentration. The contraction was recorded. When peak contractile force was reached, carbachol (1 μM) was added, and any further contraction was recorded. The resulting contraction is expressed as a fraction of the 1 μM carbachol contraction. The test compound and carbachol were washed away by changing the bath solution twice. The procedure was repeated at 30, 60, and 90 min following the initial dosing.

The target in data set [2] is T1, human motilin receptor. The following applies: HEK293 cells expressing human motilin receptor; as reported in Anal. Biochemistry; read-out: Motilin Agonist EC50; cited from earlier work.
Data set [3] addresses hERG (human ether-a-go-go related gene) potassium channel (Homo sapiens, UniProt Q12809). Put plainly: in vitro.
Excerpt: as §1

SMILES strings stand for the structures. pEC50, pKi: −log10 of the molar value. Converted amounts (≈) assume the structure as drawn. Where two headings read alike, the source gives them in different places.

hERG potassium channel, sequence (Q12809 whole entry): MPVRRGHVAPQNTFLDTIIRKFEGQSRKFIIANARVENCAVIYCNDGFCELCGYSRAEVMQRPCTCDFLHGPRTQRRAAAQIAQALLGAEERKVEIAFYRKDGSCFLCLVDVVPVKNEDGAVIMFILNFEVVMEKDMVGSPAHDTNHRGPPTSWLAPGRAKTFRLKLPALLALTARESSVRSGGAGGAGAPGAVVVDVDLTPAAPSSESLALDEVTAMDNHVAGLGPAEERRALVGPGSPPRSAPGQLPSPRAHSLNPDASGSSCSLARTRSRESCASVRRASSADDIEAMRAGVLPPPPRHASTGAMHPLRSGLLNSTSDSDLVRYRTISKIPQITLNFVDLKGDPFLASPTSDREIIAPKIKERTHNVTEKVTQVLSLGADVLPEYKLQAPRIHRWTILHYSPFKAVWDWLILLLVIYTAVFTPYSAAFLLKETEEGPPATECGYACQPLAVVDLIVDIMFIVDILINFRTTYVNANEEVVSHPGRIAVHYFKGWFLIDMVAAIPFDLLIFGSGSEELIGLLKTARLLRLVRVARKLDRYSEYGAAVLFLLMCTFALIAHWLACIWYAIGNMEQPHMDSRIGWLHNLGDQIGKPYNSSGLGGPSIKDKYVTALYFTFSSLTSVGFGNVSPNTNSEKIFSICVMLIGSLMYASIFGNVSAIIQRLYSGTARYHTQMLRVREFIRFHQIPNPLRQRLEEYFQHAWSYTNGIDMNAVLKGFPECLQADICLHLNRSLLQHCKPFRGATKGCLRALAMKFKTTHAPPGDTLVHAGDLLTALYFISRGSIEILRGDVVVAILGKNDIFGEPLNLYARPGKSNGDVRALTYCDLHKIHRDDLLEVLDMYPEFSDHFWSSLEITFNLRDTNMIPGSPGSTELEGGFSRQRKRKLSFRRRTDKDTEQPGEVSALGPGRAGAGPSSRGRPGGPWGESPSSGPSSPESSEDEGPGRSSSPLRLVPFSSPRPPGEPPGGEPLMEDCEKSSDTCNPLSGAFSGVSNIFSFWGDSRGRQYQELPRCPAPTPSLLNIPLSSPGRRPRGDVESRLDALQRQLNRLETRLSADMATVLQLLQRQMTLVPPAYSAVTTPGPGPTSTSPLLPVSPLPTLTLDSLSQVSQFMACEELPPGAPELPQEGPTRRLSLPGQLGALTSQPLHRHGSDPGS
hERG (human ether-a-go-go related gene) potassium channel, sequence (Q12809 whole entry): as above
T1 sequence (O43193 whole entry): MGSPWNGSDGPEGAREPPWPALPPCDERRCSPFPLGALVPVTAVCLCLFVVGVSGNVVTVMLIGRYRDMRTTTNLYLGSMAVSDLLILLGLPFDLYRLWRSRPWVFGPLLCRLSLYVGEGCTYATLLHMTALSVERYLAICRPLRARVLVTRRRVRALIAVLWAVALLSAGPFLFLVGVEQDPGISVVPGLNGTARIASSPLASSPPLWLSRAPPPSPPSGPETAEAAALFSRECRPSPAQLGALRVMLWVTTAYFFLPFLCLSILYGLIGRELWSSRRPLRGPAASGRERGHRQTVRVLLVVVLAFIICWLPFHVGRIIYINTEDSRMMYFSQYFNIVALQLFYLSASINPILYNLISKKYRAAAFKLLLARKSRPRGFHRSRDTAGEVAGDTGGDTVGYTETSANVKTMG
cytochrome P450 3A4, sequence (P08684 whole entry): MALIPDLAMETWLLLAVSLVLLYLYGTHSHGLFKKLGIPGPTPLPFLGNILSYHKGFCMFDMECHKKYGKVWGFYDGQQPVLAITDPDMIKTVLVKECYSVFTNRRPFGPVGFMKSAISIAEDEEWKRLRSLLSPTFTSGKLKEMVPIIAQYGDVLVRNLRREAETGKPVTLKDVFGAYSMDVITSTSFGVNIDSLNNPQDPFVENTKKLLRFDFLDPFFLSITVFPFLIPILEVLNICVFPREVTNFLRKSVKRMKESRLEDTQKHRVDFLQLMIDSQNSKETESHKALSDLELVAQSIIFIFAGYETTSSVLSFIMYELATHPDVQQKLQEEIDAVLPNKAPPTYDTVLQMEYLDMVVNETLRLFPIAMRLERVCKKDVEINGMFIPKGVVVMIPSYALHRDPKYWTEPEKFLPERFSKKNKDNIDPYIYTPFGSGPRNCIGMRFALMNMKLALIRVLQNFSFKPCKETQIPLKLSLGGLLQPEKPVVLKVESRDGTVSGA

On hERG potassium channel, `CCC(C)N(C)[C@H]1C[C@@H](C)O[C@@H](O[C@@H]2[C@@H](C)[C@H](O[C@H]3C[C@@](C)(OC)[C@@H](O)[C@H](C)O3)[C@@H](C)C(=O)O[C@H](CC)[C@@](C)(O)[C@H](O)[C@@H](C)C[C@H](C)CC2(C)O)[C@@H]1O` (some centres unmarked) [Compound I-c, N-Desmethyl-N-sec-butyl-9-desoxoerythromycin A] gave an inhibition at 10 µM of 26.5% and an inhibition at 30 µM of 70.3%.

In turn, `CC[C@H]1OC(=O)[C@H](C)[C@@H](O[C@H]2C[C@@](C)(OC)[C@@H](O)[C@H](C)O2)[C@H](C)[C@@H](O[C@@H]2O[C@H](C)C[C@H](N(C)C(C)C)[C@H]2O)C(C)(O)C[C@@H](C)C[C@H](C)[C@@H](O)[C@]1(C)O` (some centres unmarked) [Compound I-b, N-Desmethyl-N-isopropyl-9-desoxoerythromycin A] showed a pKi on cytochrome P450 3A4 of 5.00. The pEC50 on human motilin receptor [1] is 5.92; in the data set with rabbit duodenum tissue (normalized to 1 μM carbachol, read-out: EC50 (concentration producing a half-maximal effect)) it was 6.74. Moreover, the EC90 in the data set on rabbit duodenum tissue (approximated as ten times EC50 and verified, read-out: EC90 (concentration producing 90% of the maximal effect)) was found to be 1800 nM. Also, the MIC is 50 µg/mL (≈ 66.8 µM) in the data set with S. pneumoniae (ATCC6301, S. pneumoniae strain ATCC 6301, read-out: Minimum Inhibitory Concentration (MIC)); 50 µg/mL (≈ 66.8 µM) with S. pneumoniae (ATCC49619, S. pneumoniae strain ATCC 49619, read-out: Minimum Inhibitory Concentration (MIC)); above 200 µg/mL in the data set on S. pneumoniae (ATCC700671, S. pneumoniae strain ATCC 700671, read-out: Minimum Inhibitory Concentration (MIC)). Further, in the data set on S. pneumoniae (erythromycin A sensitive strains of S. pneumoniae, in words), the antibacterial activity entry is “low antibacterial activity”. Besides, the “tachyphylaxis effect (FIG. 1)” value in the data set with rabbit duodenum strips (contractile responses at 0, 30, 60, 90 min, in words) was “distinctly less pronounced than that of ABT 229”. In addition, in the data set with rabbit duodenum strips, the “% of the initial contraction after the fourth dose” value stood at 39±13%. This molecule displayed an inhibition at 10 µM on hERG potassium channel of 74%. Also, at hERG potassium channel, at 30 µM the inhibition was 95%.

For the molecule `CC[C@H]1OC(=O)[C@H](C)[C@@H](OC2C[C@@](C)(OC)C[C@H](C)O2)[C@H](C)[C@@H](OC2O[C@H](C)C[C@H](N(C)CC)[C@H]2O)[C@@]2(C)CC(C)=C(O2)[C@H](C)[C@@H](O)[C@H]1C` (some centres unmarked) [ABT 229], the pEC50 at human motilin receptor [2] is 7.40.

With `CCC1OC(=O)C(C)C(OC2CC(C)(OC)C(O)C(C)O2)C(C)C(OC2OC(C)CC(N(C)CCO)C2O)C(C)(O)CC(C)CC(C)C(O)C1(C)O` (centres unmarked) [Compound I-e, N-Desmethyl-N-(2-hydroxyethyl)-9-desoxoerythromycin A], the “% of the initial contraction after the fourth dose” value in the data set with rabbit duodenum strips is recorded as 85±11%. The “Inhibition (%) at Specified Compound Concentration” value in data set [3] (10 µM) is given as 57.1%; in data set [3] (30 µM), 84.3%.

Take `CC[C@H]1OC(=O)[C@H](C)[C@@H](O[C@H]2C[C@@](C)(OC)[C@@H](O)[C@H](C)O2)[C@H](C)[C@@H](O[C@@H]2O[C@H](C)C[C@H](N(C)CC(C)C)[C@H]2O)C(C)(O)C[C@@H](C)C[C@H](C)[C@@H](O)[C@]1(C)O` (some centres unmarked) [Compound I-d, N-Desmethyl-N-isobutyl-9-desoxoerythromycin A]: on hERG potassium channel, at 10 µM the inhibition was 33.1% and at 30 µM the inhibition was 71.4%.

Turning to `CC[C@H]1OC(=O)[C@H](C)[C@@H](O[C@H]2C[C@@](C)(OC)[C@@H](O)[C@H](C)O2)[C@H](C)[C@@H](O[C@@H]2O[C@H](C)C[C@H](N(C)C)[C@H]2O)[C@](C)(O)C[C@@H](C)C(=O)[C@H](C)[C@@H](O)[C@]1(C)O` [Erythromycin A, reference compound], the MIC with S. pneumoniae (ATCC6301, read-out: Minimum Inhibitory Concentration (MIC)) worked out at 0.025 µg/mL (≈ 0.0341 µM); in the data set with S. pneumoniae (ATCC49619, read-out: Minimum Inhibitory Concentration (MIC)) it was 0.049 µg/mL (≈ 0.0668 µM); with S. pneumoniae (ATCC700671, read-out: Minimum Inhibitory Concentration (MIC)), 0.049 µg/mL (≈ 0.0668 µM).

For orientation: inhibition means the drop in the measured response relative to a control, in per cent. High values mean a strong effect, low ones a weak effect. Usually pKi stands for the negative decadic logarithm of the Ki, by convention in mol/L.
